Patent US20230066011A1, “PYRROLOPYRIMIDINE DERIVATIVE, AND PHARMACEUTICAL COMPOSITION FOR PREVENTING OR TREATING PROTEIN KINASE-RELATED DISEASE COMPRISING SAME AS ACTIVE INGREDIENT” (VORONOI CO., LTD., priority 2019, published 2023)

Experiments:
human GST-CLK1 = target: T1, human GST-CLK1 (Homo sapiens, UniProt P49759); test: GST-CLK1 enzyme inhibition, ADP-Glo kinase assay; type: biochemical; conditions: ATP 10 μM, GST-CLK1 129-end
T1 construct: purified human GST-CLK1 (129-end, SignalChem) enzyme; purchased SignalChem
Procedure, shortened: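 ADP-Glo luminescence read-out, relative to untreated solvent control, gave IC50 (nM) from triplicate data sets. Reactions ran an hour at 25° C with 3 ng GST-CLK1 (residues 129-end), 10 μM ATP and specific substrate in Tris-HCl pH 7.4 buffer with MgCl2, BSA and DTT.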

human GST-DYRK1A = target: T2, human GST-DYRK1A (Homo sapiens, UniProt Q13627); test: GST-DYRK1A enzyme inhibition, ADP-Glo kinase assay; type: biochemical; conditions: ATP 10 μM, GST-DYRK1A full length, read-out: DYRK1 IC50
T2 construct: purified human GST-DYRK1A (full length, Thermo Scientifics) enzyme; purchased Thermo Scientifics
Procedure, shortened: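 Full-length enzyme (10 ng) was incubated with 10 μM ATP and a specific substrate for 1 h at 25 °C in 40 mM Tris-HCl pH 7.4, 20 mM MgCl2, 0.5 mg/mL BSA, 50 μM DTT. Luminescence was read against a solvent control, and IC50 values were derived from 3 data sets.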

T1 sequence (P49759 129-484 limits assumed): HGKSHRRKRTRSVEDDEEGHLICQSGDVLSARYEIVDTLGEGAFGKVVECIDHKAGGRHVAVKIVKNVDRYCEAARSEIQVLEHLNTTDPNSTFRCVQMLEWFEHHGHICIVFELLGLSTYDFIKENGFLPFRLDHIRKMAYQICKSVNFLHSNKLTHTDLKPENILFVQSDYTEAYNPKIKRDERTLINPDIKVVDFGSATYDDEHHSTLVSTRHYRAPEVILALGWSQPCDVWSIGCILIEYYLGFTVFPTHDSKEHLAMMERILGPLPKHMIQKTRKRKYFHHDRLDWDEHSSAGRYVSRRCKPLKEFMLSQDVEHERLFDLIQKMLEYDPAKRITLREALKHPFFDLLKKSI

Row | Structure (SMILES) | IC50 (human GST-CLK1) [µM] | IC50 (human GST-DYRK1A) [µM]
1 | CCCNc1nc(Nc2ccc(P(C)(C)=O)cc2OC)nc2[nH]cc(C(F)(F)F)c12 [Example 369, (3-methoxy-4-((4-(propylamino)-5-(trifluoromethyl)-7H-pyrrolo[2,3-d]pyrimidin-2-yl)amino)phenyl) dimethyl-phosphine oxide] | < 0.1 | 0.101 to 0.3
2 | COc1cc(P2(=O)CCN(C3COC3)CC2)ccc1Nc1nc(NCC2CCC2)c2c(C#N)c[nH]c2n1 [Example 307, 4-((cyclo-butylmethyl)amino)-2-((2-methoxy-4-(1-(oxetan-3-yl)-4-oxido-1,4-azaphosphinan-4-yl)phenyl)amino)-7H-pyrrolo[2,3-d]pyrimidine-5-carbonitrile] | 0.101 to 0.3 | 0.301 to 1
3 | CCNc1nc(Nc2ccc(C(=O)N3CCOCC3)c3c2OCC3)nc2[nH]cc(C#N)c12 [Example 346, 4-(ethylamino)-2-((4-(morpholine-4-carbonyl)-2,3-dihydrobenzo-furan-7-yl)amino)-7H-pyrrolo[2,3-d]pyrimidine-5-carbonitrile] | < 0.1 | 0.101 to 0.3
4 | N#Cc1c[nH]c2nc(Nc3ccc(C(=O)N4CC(CO)(CO)C4)c4c3OCCO4)nc(NCC3CC3)c12 [Example 338, 2-((8-(3,3-bis (hydroxymethyl)azetidine-1-carbonyl)-2,3-dihydrobenzo [b][1,4]dioxin-5-yl)amino)-4-((cyclopropyl-meth-yl)amino)-7H-pyrrolo[2,3-d]pyrimidine-5-carbonitrile] | < 0.1 | 0.101 to 0.3
5 | CCNc1nc(Nc2ccc(C(=O)N3CCC(N4CCOCC4)CC3)c3c2OCCO3)nc2[nH]cc(C#N)c12 [Example 258, 4-(ethylamino)-2-((8-(4-morpholinopiperidine-1-carbonyl)-2,3-dihydrobenzo[b][1,4]dioxin-5-yl)amino)-7H-pyrrolo[2,3-d]pyrimidine-5-carbonitrile] | < 0.1 | 0.301 to 1
6 | CCCNc1nc(Nc2ccc(C(=O)N3CCOCC3)c3c2OCC3)nc2[nH]cc(C(F)(F)F)c12 [Example 445, morpholino(7-((4-(propylamino)-5-(trifluoromethyl)-7H-pyrrolo[2,3-d]pyrimidin-2-yl)amino)-2,3-dihydrobenzo-furan-4-yl)methanone] | < 0.1 | < 0.1
7 | CC[C@H](C)Nc1nc(Nc2ccc(P3(=O)CCN(C4CC4)CC3)cc2OC)nc2[nH]cc(C#N)c12 [Example 296, (S)-4-(sec-butylamino)-2-((4-(1-cyclopropyl-4-oxido-1,4-azaphosphinan-4-yl)-2-methoxyphenyl)a-mino)-7H-pyrrolo[2,3-d]pyrimidine-5-carbonitrile] | 0.301 to 1 | 0.301 to 1
8 | N#Cc1c[nH]c2nc(Nc3ccc(C(=O)N4CC(CO)(CO)C4)c4c3OCCO4)nc(NCC3CCC3)c12 [Example 339, 2-((8-(3,3-bis (hydroxymethyl)azetidine-1-carbonyl)-2,3-dihydrobenzo [b][1,4]dioxin-5-yl)amino)-4-((cyclobutyl-methyl)amino)-7H-pyrrolo[2,3-d]pyrimidine-5-carbonitrile] | < 0.1 | 0.301 to 1
9 | COc1cc(P(C)(C)=O)ccc1Nc1nc(NC(C)C)c2c(C#N)c[nH]c2n1 [Example 114, 2-((4-(dimethylphosphoryl)-2-methoxyphenyl)amino)-4-(isopropylamino)-7H-pyrrolo[2,3-d]pyrimidine-5-carbonitrile] | 0.301 to 1 | 0.301 to 1
10 | CNc1nc(Nc2ccc(P(C)(C)=O)cc2OC)nc2[nH]cc(C#N)c12 [Example 253, 2-((4-(dimethylphosphoryl)-2-methoxyphenyl)amino)-4-(methylamino)-7H-pyrrolo[2,3-d]pyrimidine-5-carbonitrile] | 0.301 to 1 | 0.301 to 1
11 | N#Cc1c[nH]c2nc(Nc3ccc(C(=O)N4CCN(C5COC5)CC4)c4c3OCCO4)nc(NCC3CCC3)c12 [Example 318, 4-((cyclo-butylmethyl)amino)-2-((8-(4-(oxetan-3-yl)piperazine-1-carbonyl)-2,3-dihydrobenzo[b] [1,4]dioxin-5-yl)amino)-7H-pyrrolo[2,3-d]pyrimidine-5-carbonitrile] | 0.101 to 0.3 | 0.301 to 1

The remaining lines, values ahead:

Row | IC50 (human GST-CLK1) [µM] | IC50 (human GST-DYRK1A) [µM] | Structure (SMILES)
12 | 0.101 to 0.3 | 0.301 to 1 | COc1cc(P2(=O)CCN(C3CC3)CC2)ccc1Nc1nc(NC2CC2)c2c(C#N)c[nH]c2n1 [Example 285, 2-((4-(1-cyclopropyl-4-oxido-1,4-azaphosphinan-4-yl)-2-methoxyphenyl)a-mino)-4-(cyclo-propylamino)-7H-pyrrolo[2,3-d]pyrimidine-5-carbonitrile]
13 | 0.301 to 1 | 0.301 to 1 | COc1cc(S(C)(=O)=O)ccc1Nc1nc(N[C@@H]2CCOC2)c2cc[nH]c2n1 [Example 28, (R)-N^2-(2-methoxy-4-(methylsulfonyl)phenyl)-N^4-(tetrahydrofuran-3-yl)-7H-pyrrolo[2,3-d]pyrimidine-2,4-diamine]
14 | 0.101 to 0.3 | 0.301 to 1 | COc1cc(P2(=O)CCN(C3COC3)CC2)ccc1Nc1nc(NCC(C)C)c2c(C#N)c[nH]c2n1 [Example 291, 4-(isobutyl-amino)-2-((2-methoxy-4-(1-(oxetan-3-yl)-4-oxido-1,4-azaphosphinan-4-yl)phenyl)amino)-7H-pyrrolo[2,3-d]pyrimidine-5-carbonitrile]
15 | < 0.1 | 0.301 to 1 | COc1cc(S(C)(=O)=O)ccc1Nc1nc(N[C@H]2CCOC2)c2c(C#N)c[nH]c2n1 [Example 108, (S)-2-((2-methoxy-4-(methylsulfonyl)phenyl)amino)-4-((tetrahydrofuran-3-yl)amino)-7H-pyrrolo[2,3-d]pyrimidine-5-carbonitrile]
16 | 0.301 to 1 | 0.301 to 1 | CC[C@@H](C)Nc1nc(Nc2ccc(S(=O)(=O)N3CCC(N4CCOCC4)CC3)cc2OC)nc2[nH]ccc12 [Example 15, (R)-N^4-(sec-butyl)-N^2-(2-methoxy-4-((4-morpholinopiperidin-1-yl)sulfonyl)phenyl)-7H-pyrrolo[2,3-d]pyrimidine-2,4-diamine]
17 | 0.101 to 0.3 | 0.101 to 0.3 | COCCNc1nc(Nc2ccc(C(=O)N3CCOCC3)c3c2OCC3)nc2[nH]cc(C#N)c12 [Example 358, 4-((2-methoxy-ethyl)ami-no)-2-((4-(morpholine-4-carbonyl)-2,3-dihydrobenzo-furan-7-yl)amino)-7H-pyrrolo[2,3-d]pyrimidine-5-carbonitrile]
18 | 0.301 to 1 | 0.301 to 1 | N#Cc1c[nH]c2nc(Nc3ccc(C(=O)N4CCOCC4)c4c3OCCO4)nc(NC3CCOCC3)c12 [Example 129, 2-((8-(morpholine-4-carbonyl)-2,3-dihydrobenzo[b][1,4]dioxin-5-yl)amino)-4-((tetrahydro-2H-pyran-4-yl)amino)-7H-pyrrolo[2,3-d]pyrimidine-5-carbonitrile]
19 | 0.101 to 0.3 | 0.301 to 1 | COc1cc(P(C)(C)=O)ccc1Nc1nc(NC2CCC2)c2c(C#N)c[nH]c2n1 [Example 268, 4-(cyclobutylamino)-2-((4-(dimethylphosphoryl)-2-methoxyphenyl)amino)-7H-pyrrolo[2,3-d]pyrimidine-5-carbonitrile]
20 | 0.301 to 1 | 0.301 to 1 | N#Cc1c[nH]c2nc(Nc3ccc(C(=O)N4CCOCC4)c4c3OCC4)nc(NCC3CCCC3)c12 [Example 342, 4-((cyclo-pentylmeth-yl)amino)-2-((4-(morpholine-4-carbonyl)-2,3-dihydrobenzo-furan-7-yl)amino)-7H-pyrrolo[2,3-d]pyrimidine-5-carbonitrile]
21 | 0.301 to 1 | 0.301 to 1 | COc1cc(P(C)(C)=O)ccc1Nc1nc(N[C@@H]2CCOC2)c2c(C#N)c[nH]c2n1 [Example 270, (R)-2-((4-(dimethylphosphoryl)-2-methoxyphenyl)amino)-4-((tetrahydrofuran-3-yl)amino)-7H-pyrrolo[2,3-d]pyrimidine-5-carbonitrile]
22 | < 0.1 | 0.301 to 1 | CC(C)CNc1nc(Nc2ccc(C(=O)N3CCOCC3)c3c2OCC3)nc2[nH]cc(C#N)c12 [Example 350, 4-(isobutyl-amino)-2-((4-(morpholine-4-carbonyl)-2,3-dihydrobenzo-furan-7-yl)amino)-7H-pyrrolo[2,3-d]pyrimidine-5-carbonitrile]
23 | 0.301 to 1 | 0.301 to 1 | COc1cc(P2(=O)CCN(C3CC3)CC2)ccc1Nc1nc(NCC2CCCC2)c2c(C#N)c[nH]c2n1 [Example 308, 4-((cyclo-pentylmeth-yl)amino)-2-((4-(1-cyclopropyl-4-oxido-1,4-azaphosphinan-4-yl)-2-methoxyphenyl)a-mino)-7H-pyrrolo[2,3-d]pyrimidine-5-carbonitrile]
24 | 0.101 to 0.3 | 0.301 to 1 | COc1cc(P(C)(C)=O)ccc1Nc1nc(NC(C)C)c2c(C(F)(F)F)c[nH]c2n1 [Example 371, (4-((4-(isopropylamino)-5-(trifluoromethyl)-7H-pyrrolo[2,3-d]pyrimidin-2-yl)amino)-3-methoxyphenyl) dimethyl phosphine oxide]
25 | 0.101 to 0.3 | 0.301 to 1 | CC[C@H](C)Nc1nc(Nc2ccc(P3(=O)CCN(C4COC4)CC3)cc2OC)nc2[nH]cc(C#N)c12 [Example 297, (S)-4-(sec-butylamino)-2-((2-methoxy-4-(1-(oxetan-3-yl)-4-oxido-1,4-azaphosphinan-4-yl)phenyl)amino)-7H-pyrrolo[2,3-d]pyrimidine-5-carbonitrile]
